Values of other authors as cited in patent US6887210B2, “Devices and methods for obtaining mammary fluid samples for evaluating breast diseases, including cancer” (Atossa Healthcare, Inc., priority 2000, dated 2005).

Conditions: rapid removal from plasma by kidney, liver and mammary gland

half-life of oxytocin in the human bloodstream / circulation: 10 to 15 min
SMILES: CC[C@H](C)[C@@H]1NC(=O)[C@H](Cc2ccc(O)cc2)NC(=O)[C@@H](N)CSSC[C@@H](C(=O)N2CCC[C@H]2C(=O)N[C@@H](CC(C)C)C(=O)NCC(N)=O)NC(=O)[C@H](CC(N)=O)NC(=O)[C@H](CCC(N)=O)NC1=O [oxytocin]
